The values below come from PubChem BioAssay (NCI).

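48-hour exposure; five concentrations; linearly interpolated endpoints. At the GI50, growth is halved. TGI is the concentration that stops growth completely.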

Test systems include NCI-H226 lung; MALME-3M melanoma; RPMI-8226 leukemia; HOP-62 NSCLC; HL-60(TB) leukemia; HCT-15 colon; 786-0 renal; OVCAR-4 ovarian; U251 CNS; HCC-2998 colon.
What all share (test): NCI-60 cell line screen, 48 h

On to `O=C(/C=C\c1ccc(Cl)cc1Cl)c1cccs1`, for which the TGI in the assay with NCI-H226 lung was 51.3 µM; with MALME-3M melanoma it was 42.9 µM; in the assay with RPMI-8226 leukemia it was 12.8 µM; in the assay on HOP-62 NSCLC it was 56.2 µM; in the assay on HL-60(TB) leukemia it was more than 100 µM; in the assay with HCT-15 colon, 34.4 µM. Besides, the TGI with 786-0 renal was 34.6 µM.
Take `Cc1ccccc1CN1CC=c2ccccc2=N1`: the TGI in the assay on NCI-H226 lung, with MALME-3M melanoma, with RPMI-8226 leukemia, in the assay with OVCAR-4 ovarian, with HOP-62 NSCLC and in the assay on HCT-15 colon was more than 100 µM each time. Besides, the TGI in the assay with U251 CNS, with HCC-2998 colon and with 786-0 renal was more than 100 µM throughout.
With `O=C(Nc1nc2ncn(CC(COc3ccccc3)OC(=O)c3ccccc3)c2c(=O)[nH]1)c1ccccc1` (stereo unspecified), the TGI in the assay on NCI-H226 lung, with MALME-3M melanoma, in the assay with RPMI-8226 leukemia, in the assay with OVCAR-4 ovarian, in the assay with HOP-62 NSCLC and in the assay on HL-60(TB) leukemia was more than 100 µM throughout. The TGI in the assay with HCT-15 colon, in the assay on U251 CNS and in the assay with 786-0 renal was more than 100 µM throughout.
For `NS(=O)(=O)c1ccc(N2N=C3c4ccccc4CC3C2c2ccc(Cl)cc2)cc1` (stereo unspecified), the GI50 in the assay on NCI-H226 lung was 10.9 µM; in the assay with MALME-3M melanoma, 4.23 µM; in the assay with RPMI-8226 leukemia it was 2.73 µM; in the assay with OVCAR-4 ovarian it was 9.77 µM; in the assay on HOP-62 NSCLC, 21.1 µM; in the assay on HCT-15 colon, 18.2 µM. Moreover, the GI50 in the assay with U251 CNS is 20.2 µM; with HCC-2998 colon it was 10.3 µM; with 786-0 renal, 6.28 µM. Moreover, the TGI in the assay on NCI-H226 lung was 38.7 µM; in the assay with MALME-3M melanoma it was 19.6 µM; in the assay on RPMI-8226 leukemia, 24 µM; in the assay with OVCAR-4 ovarian, 30.6 µM; in the assay with HOP-62 NSCLC, 47.4 µM; in the assay on HCT-15 colon, 38.3 µM. Further, the TGI in the assay with U251 CNS worked out at 42.5 µM; with HCC-2998 colon, 27.7 µM; in the assay on 786-0 renal, 24.9 µM.
In the case of `Cc1ccc(C)c(NC(=O)CC/C(=N\NC(=O)C(N)=O)C(C)C(=O)c2ccc(O)cc2)c1` (stereo unspecified), the TGI in the assay on NCI-H226 lung, in the assay on MALME-3M melanoma, in the assay with OVCAR-4 ovarian, with HOP-62 NSCLC, in the assay on HL-60(TB) leukemia and in the assay with HCT-15 colon was more than 100 µM throughout. In addition, the TGI in the assay on U251 CNS, in the assay with HCC-2998 colon and with 786-0 renal was more than 100 µM each time.
For the compound `OCC12C3C4C1C1C2C3C41CO` (stereo unspecified), the TGI in the assay with NCI-H226 lung, with MALME-3M melanoma, in the assay on RPMI-8226 leukemia, in the assay with OVCAR-4 ovarian, with HOP-62 NSCLC and in the assay on HCT-15 colon was more than 100 µM each time. The TGI with U251 CNS, in the assay on HCC-2998 colon and with 786-0 renal was more than 100 µM throughout.
`C=C1C(=O)O[C@H]2[C@H]1CC/C(COC(=O)NCc1c[nH]c3ccc(Cl)cc13)=C\CC[C@@]1(C)O[C@@H]21`: the GI50 in the assay with NCI-H226 lung is 1.61 µM; in the assay on MALME-3M melanoma, 1.68 µM; with RPMI-8226 leukemia, 0.836 µM; with OVCAR-4 ovarian, 1.45 µM; with HOP-62 NSCLC it was 1.72 µM; in the assay on HCT-15 colon, 0.615 µM. The GI50 is 1.66 µM in the assay on U251 CNS, 1.96 µM with HCC-2998 colon and 1.07 µM with 786-0 renal. The TGI stood at 3.09 µM in the assay on NCI-H226 lung; 3.34 µM with MALME-3M melanoma; 3.51 µM in the assay with RPMI-8226 leukemia; 3.16 µM in the assay on OVCAR-4 ovarian; 3.74 µM in the assay on HOP-62 NSCLC; 1.95 µM in the assay with HCT-15 colon. The TGI turned out to be 3.08 µM in the assay with U251 CNS, 3.69 µM in the assay with HCC-2998 colon and 2.49 µM with 786-0 renal.
As to `c1ccc(CN(Cn2cccn2)Cn2cccn2)nc1`, the TGI with RPMI-8226 leukemia was 78.8 µM; with OVCAR-4 ovarian, more than 100 µM; with HOP-62 NSCLC it was more than 100 µM; with HL-60(TB) leukemia it was more than 100 µM; in the assay with HCT-15 colon, more than 100 µM; with U251 CNS it was more than 100 µM. This compound also showed a TGI in the assay on 786-0 renal of more than 100 µM.
With `COc1ccc(C2=NN(C(C)=O)C(c3cn(-c4ccccc4)nc3-c3ccc(Cl)cc3)C2)cc1` (stereo unspecified), the GI50 in the assay on NCI-H226 lung is more than 100 µM; in the assay with RPMI-8226 leukemia it was more than 100 µM; in the assay with HOP-62 NSCLC it was more than 100 µM; with HL-60(TB) leukemia, more than 100 µM; in the assay with U251 CNS, 7.44 µM; with HCC-2998 colon it was more than 100 µM. The GI50 in the assay on 786-0 renal was 30.7 µM. The TGI in the assay with NCI-H226 lung, in the assay with RPMI-8226 leukemia, in the assay with HOP-62 NSCLC, with HL-60(TB) leukemia, with HCT-15 colon and with U251 CNS was more than 100 µM in each case. Moreover, the TGI in the assay on HCC-2998 colon and with 786-0 renal was more than 100 µM in each case.
Take `Cc1cc(Cl)ccc1N=C1NC(=O)C(CC(=O)Nc2ccc(Cl)cc2Cl)S1` (stereo unspecified): the TGI in the assay on MALME-3M melanoma, in the assay on RPMI-8226 leukemia, with OVCAR-4 ovarian, in the assay with HOP-62 NSCLC, with HCT-15 colon and with U251 CNS was more than 100 µM each time. In addition, the TGI in the assay on HCC-2998 colon and with 786-0 renal was more than 100 µM each time.
Consider `COc1cc(C(=O)c2cc3c(cc2C)OCO3)cc(OC)c1OC`, for which the GI50 in the assay on NCI-H226 lung was 0.554 µM; with RPMI-8226 leukemia, 0.284 µM; with OVCAR-4 ovarian, 0.83 µM; in the assay on HOP-62 NSCLC it was 0.17 µM; in the assay on HL-60(TB) leukemia, 0.0329 µM; with HCT-15 colon, 0.0528 µM. In addition, the GI50 is 0.158 µM in the assay with U251 CNS, 0.218 µM in the assay with HCC-2998 colon and 0.322 µM in the assay with 786-0 renal. For the same compound, the TGI with NCI-H226 lung was more than 100 µM; in the assay on RPMI-8226 leukemia, more than 67.3 µM; in the assay with OVCAR-4 ovarian it was more than 100 µM; with HOP-62 NSCLC it was more than 100 µM; with HL-60(TB) leukemia it was 0.152 µM; in the assay with HCT-15 colon, more than 100 µM. Further, the TGI with U251 CNS, in the assay on HCC-2998 colon and in the assay on 786-0 renal was more than 100 µM in each case.
Turning to `O=C(Nc1c(O)[nH]c(=S)[nH]c1=O)c1ccc2ccccc2n1`, the TGI in the assay on NCI-H226 lung, in the assay with MALME-3M melanoma, with RPMI-8226 leukemia, in the assay with OVCAR-4 ovarian, with HOP-62 NSCLC and with HL-60(TB) leukemia was more than 100 µM in each case. Further, the TGI with HCT-15 colon, in the assay on U251 CNS and with 786-0 renal was more than 100 µM throughout.
